Test results reported in ChEMBL document CHEMBL2074482 (J Pharmacol Sci, 2004).

How the values were obtained:
[1] = molecular target: T1, Organic anion transporter 3 (Rattus norvegicus, UniProt Q9R1U7); assay: TP_TRANSPORTER: inhibition of ES uptake (ES: 50nM) in rOAT3-expressing S2 cells; type: functional, cell-based
T1 sequence (Q9R1U7 whole entry): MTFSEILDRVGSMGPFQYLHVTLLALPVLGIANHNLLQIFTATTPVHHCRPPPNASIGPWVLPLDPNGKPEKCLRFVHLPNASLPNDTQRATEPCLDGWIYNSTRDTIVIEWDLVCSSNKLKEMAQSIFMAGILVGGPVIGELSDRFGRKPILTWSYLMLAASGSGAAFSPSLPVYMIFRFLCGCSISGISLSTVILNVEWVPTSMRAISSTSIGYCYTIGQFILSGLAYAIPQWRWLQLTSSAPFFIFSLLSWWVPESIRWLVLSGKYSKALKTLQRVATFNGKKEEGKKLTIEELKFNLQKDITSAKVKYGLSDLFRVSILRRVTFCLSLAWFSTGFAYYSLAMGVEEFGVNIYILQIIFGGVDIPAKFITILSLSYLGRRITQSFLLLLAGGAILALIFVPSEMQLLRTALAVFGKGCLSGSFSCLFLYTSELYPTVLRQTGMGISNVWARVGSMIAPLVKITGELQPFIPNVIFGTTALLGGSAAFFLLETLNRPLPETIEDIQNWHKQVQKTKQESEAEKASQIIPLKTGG

[2] = molecular target: T2, Organic anion transporter 3 (Homo sapiens, UniProt Q8TCC7); assay: TP_TRANSPORTER: inhibition of ES uptake (ES: 50nM) in hOAT3-expressing S2 cells; type: functional, cell-based
T2 sequence (Q8TCC7 whole entry): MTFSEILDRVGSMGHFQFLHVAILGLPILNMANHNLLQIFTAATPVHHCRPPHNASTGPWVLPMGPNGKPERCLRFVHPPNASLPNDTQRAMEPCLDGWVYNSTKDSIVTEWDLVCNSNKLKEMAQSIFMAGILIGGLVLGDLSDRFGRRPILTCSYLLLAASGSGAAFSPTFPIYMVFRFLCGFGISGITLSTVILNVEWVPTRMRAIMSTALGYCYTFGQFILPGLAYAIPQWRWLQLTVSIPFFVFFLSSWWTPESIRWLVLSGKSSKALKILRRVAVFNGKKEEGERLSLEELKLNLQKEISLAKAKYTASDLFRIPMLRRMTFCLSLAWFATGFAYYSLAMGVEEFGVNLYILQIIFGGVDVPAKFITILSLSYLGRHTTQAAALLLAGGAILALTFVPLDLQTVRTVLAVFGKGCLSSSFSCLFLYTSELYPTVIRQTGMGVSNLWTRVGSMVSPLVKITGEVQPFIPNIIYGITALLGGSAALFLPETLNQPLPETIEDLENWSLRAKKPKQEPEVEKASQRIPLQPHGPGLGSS

[3] = molecular target: T3, Solute carrier family 22 member 11 (Homo sapiens, UniProt Q9NSA0); assay: TP_TRANSPORTER: inhibition of ES uptake (ES: 50nM) in hOAT4-expressing S2 cells; type: functional, cell-based
T3 sequence (Q9NSA0 whole entry): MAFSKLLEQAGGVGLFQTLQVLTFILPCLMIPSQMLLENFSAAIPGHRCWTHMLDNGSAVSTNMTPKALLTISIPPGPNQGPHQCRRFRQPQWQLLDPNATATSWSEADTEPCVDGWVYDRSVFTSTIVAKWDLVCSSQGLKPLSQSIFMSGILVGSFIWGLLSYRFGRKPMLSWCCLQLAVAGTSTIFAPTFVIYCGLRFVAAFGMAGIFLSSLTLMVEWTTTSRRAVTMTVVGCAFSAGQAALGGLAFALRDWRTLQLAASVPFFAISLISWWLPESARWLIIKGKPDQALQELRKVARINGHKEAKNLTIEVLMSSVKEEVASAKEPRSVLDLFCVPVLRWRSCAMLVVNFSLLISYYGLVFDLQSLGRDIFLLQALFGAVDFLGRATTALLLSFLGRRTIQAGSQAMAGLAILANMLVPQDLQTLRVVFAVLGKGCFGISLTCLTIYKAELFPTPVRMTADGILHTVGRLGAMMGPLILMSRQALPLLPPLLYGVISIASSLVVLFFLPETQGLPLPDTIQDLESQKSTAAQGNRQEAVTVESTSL

[4] = molecular target: T4, Solute carrier family 22 member 6 (Rattus norvegicus, UniProt O35956)
T4 sequence (O35956 whole entry): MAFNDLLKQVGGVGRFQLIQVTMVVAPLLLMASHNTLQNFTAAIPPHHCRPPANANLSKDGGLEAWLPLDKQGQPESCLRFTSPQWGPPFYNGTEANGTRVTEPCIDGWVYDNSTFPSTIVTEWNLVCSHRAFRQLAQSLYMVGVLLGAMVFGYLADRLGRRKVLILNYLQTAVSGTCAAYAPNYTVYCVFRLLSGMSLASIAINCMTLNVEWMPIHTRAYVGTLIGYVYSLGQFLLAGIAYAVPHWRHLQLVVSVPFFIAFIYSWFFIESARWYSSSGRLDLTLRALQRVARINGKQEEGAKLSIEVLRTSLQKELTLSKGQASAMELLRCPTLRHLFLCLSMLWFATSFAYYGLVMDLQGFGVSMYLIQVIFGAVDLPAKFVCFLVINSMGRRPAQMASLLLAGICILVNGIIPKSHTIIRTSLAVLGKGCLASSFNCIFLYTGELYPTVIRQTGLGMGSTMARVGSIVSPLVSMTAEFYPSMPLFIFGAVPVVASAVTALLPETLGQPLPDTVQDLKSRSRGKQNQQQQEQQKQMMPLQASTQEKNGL

[5] = molecular target: T5, Solute carrier family 22 member 7 (Rattus norvegicus, UniProt Q5RLM2); assay: TP_TRANSPORTER: inhibition of PGF2alpha uptake (PGF2: 50nM) in rOAT2-expressing S2 cells; type: functional, cell-based
T5 sequence (Q5RLM2 whole entry): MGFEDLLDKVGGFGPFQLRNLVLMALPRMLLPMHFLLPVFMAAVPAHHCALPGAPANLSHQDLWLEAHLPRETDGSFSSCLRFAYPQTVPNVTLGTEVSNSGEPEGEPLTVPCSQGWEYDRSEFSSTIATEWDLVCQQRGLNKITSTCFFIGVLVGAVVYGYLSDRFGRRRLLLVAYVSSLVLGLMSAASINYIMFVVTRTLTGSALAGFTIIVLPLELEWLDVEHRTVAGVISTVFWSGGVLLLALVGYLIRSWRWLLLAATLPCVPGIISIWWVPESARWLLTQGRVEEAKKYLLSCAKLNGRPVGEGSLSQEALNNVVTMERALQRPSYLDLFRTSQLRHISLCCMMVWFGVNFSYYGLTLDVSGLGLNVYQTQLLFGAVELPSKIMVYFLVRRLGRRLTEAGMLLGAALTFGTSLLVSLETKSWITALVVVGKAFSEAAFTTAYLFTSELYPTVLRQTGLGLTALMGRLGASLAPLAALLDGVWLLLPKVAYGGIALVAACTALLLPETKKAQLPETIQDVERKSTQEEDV

[6] = molecular target: T6, Solute carrier family 22 member 7 (Homo sapiens, UniProt Q9Y694); assay: TP_TRANSPORTER: inhibition of PGF2alpha uptake (PGF2: 50nM) in hOAT2-expressing S2 cells; type: functional, cell-based
T6 sequence (Q9Y694 whole entry): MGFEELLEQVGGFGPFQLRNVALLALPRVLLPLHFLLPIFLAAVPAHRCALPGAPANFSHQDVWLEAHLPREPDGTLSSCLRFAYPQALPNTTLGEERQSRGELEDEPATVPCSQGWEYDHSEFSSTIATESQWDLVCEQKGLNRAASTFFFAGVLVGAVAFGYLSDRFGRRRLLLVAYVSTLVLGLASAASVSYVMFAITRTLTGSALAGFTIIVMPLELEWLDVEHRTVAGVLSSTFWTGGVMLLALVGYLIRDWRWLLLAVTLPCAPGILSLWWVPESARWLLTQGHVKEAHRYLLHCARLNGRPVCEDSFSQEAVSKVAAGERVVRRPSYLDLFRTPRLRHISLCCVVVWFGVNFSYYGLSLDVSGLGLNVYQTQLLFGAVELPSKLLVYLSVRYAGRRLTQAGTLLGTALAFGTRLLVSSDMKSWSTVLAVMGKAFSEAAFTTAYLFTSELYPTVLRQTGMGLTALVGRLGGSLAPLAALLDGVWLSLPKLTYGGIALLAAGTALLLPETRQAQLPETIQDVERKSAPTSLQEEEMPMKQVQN

IC50 [1] [µM]	IC50 [2] [µM]	IC50 [3] [µM]	IC50 [5] [µM]	IC50 [6] [µM]	Structure (SMILES)	IC50 [4] [µM]
47.5	9.92	483			O=C(O)CCNC(=O)c1ccccc1 [BETAMIPRON]	
15.6	13.7	591	449	352	CC[C@H](C)C(=O)O[C@H]1C[C@H](O)C=C2C=C[C@H](C)[C@H](CC[C@@H](O)C[C@@H](O)CC(=O)O)[C@H]21 [PRAVASTATIN]	
6.03			977	668	CCCN(CCC)S(=O)(=O)c1ccc(C(=O)O)cc1 [PROBENECID]	

Continued, molecule first:

Structure (SMILES)	IC50 [1] [µM]	IC50 [2] [µM]	IC50 [3] [µM]	IC50 [5] [µM]	IC50 [6] [µM]	IC50 [4] [µM]
CC1(C)C[C@@H]1C(=O)N/C(=C\CCCCSC[C@H](N)C(=O)O)C(=O)O [CILASTATIN]	742	249				
CN/C(=N/CCSCc1nc[nH]c1C)NC#N [CIMETIDINE]	166	92.4	> 2000			> 2000
